Measurements reported in PubChem BioAssay AID1259407 (Chemical Carcinogenesis Research Information System (CCRIS), 2018).
Calls of active or inactive are those of the source. No rule for the calls is given here.

Test system: CCRIS mutagenicity, Ames/micronucleus/aberration tests
Experiment: CCRIS mutagenicity studies
Conditions: Test System: AMES SALMONELLA TYPHIMURIUM
[1] = Strain/Indicator: TA98, Metabolic Activation: NONE, Method: STANDARD PLATE
[2] = Strain/Indicator: TA98, Metabolic Activation: RAT, LIVER, S-9, AROCLOR 1254, Method: STANDARD PLATE
[3] = Strain/Indicator: TA100, Metabolic Activation: NONE, Method: STANDARD PLATE
[4] = Strain/Indicator: TA100, Metabolic Activation: RAT, LIVER, S-9, AROCLOR 1254, Method: STANDARD PLATE
[5] = Strain/Indicator: TA1535, Metabolic Activation: NONE, Method: STANDARD PLATE
[6] = Strain/Indicator: TA1535, Metabolic Activation: RAT, LIVER, S-9, AROCLOR 1254, Method: STANDARD PLATE
[7] = Strain/Indicator: TA1537, Metabolic Activation: NONE, Method: STANDARD PLATE
[8] = Strain/Indicator: TA1537, Metabolic Activation: RAT, LIVER, S-9, AROCLOR 1254, Method: STANDARD PLATE
[9] = Strain/Indicator: TA102, Metabolic Activation: NONE, Method: PREINCUBATION
[10] = Strain/Indicator: TA102, Metabolic Activation: RAT, LIVER, S-9, AROCLOR 1254, Method: PREINCUBATION
[11] = Strain/Indicator: TA100, Metabolic Activation: NONE, Method: PREINCUBATION

With `C=C(C)C(=O)OCCCCOC(=O)C(=C)C` the mutagenic call [1] was “inactive; negative”, the mutagenic call [2] was “inactive; negative” and the mutagenic call (Strain/Indicator: TA98, Metabolic Activation: RAT, LIVER, S-9, SODIUM PHENOBARBITAL, Method: STANDARD PLATE) was “inactive; negative”. The mutagenic call [3] was “inactive; negative”, the mutagenic call [4] was “inactive; negative” and the mutagenic call (Strain/Indicator: TA100, Metabolic Activation: RAT, LIVER, S-9, SODIUM PHENOBARBITAL, Method: STANDARD PLATE) was “inactive; negative”. The mutagenic call [5] was “inactive; negative”, the mutagenic call [6] was “inactive; negative” and the mutagenic call (Strain/Indicator: TA1535, Metabolic Activation: RAT, LIVER, S-9, SODIUM PHENOBARBITAL, Method: STANDARD PLATE) was “inactive; negative”. The mutagenic call [7] was “inactive; negative”, the mutagenic call [8] was “inactive; negative” and the mutagenic call (Strain/Indicator: TA1537, Metabolic Activation: RAT, LIVER, S-9, SODIUM PHENOBARBITAL, Method: STANDARD PLATE) was “inactive; negative”. The mutagenic call (Strain/Indicator: TA1538, Metabolic Activation: NONE, Method: STANDARD PLATE) was “inactive; negative”, the mutagenic call (Strain/Indicator: TA1538, Metabolic Activation: RAT, LIVER, S-9, AROCLOR 1254, Method: STANDARD PLATE) was “inactive; negative” and the mutagenic call (Strain/Indicator: TA1538, Metabolic Activation: RAT, LIVER, S-9, SODIUM PHENOBARBITAL, Method: STANDARD PLATE) was “inactive; negative”.
For `CCCCCCC(=O)OCC`, the mutagenic call (Strain/Indicator: TA97, Metabolic Activation: NONE, Method: PREINCUBATION) was “inactive; negative”, the mutagenic call (Strain/Indicator: TA97, Metabolic Activation: RAT, LIVER, S-9, AROCLOR 1254, Method: PREINCUBATION) was “inactive; negative” and the mutagenic call [9] was “inactive; negative”. For the same compound, the mutagenic call [10] was “inactive; negative”.
With `COP(=S)(OC)Oc1ccc(Sc2ccc(OP(=S)(OC)OC)cc2)cc1` the mutagenic call (Strain/Indicator: TA97, Metabolic Activation: NONE, Method: STANDARD PLATE) was “inactive; negative”, the mutagenic call (Strain/Indicator: TA97, Metabolic Activation: S-9, Method: STANDARD PLATE) was “inactive; negative” and the mutagenic call [1] was “inactive; negative”. The mutagenic call (Strain/Indicator: TA98, Metabolic Activation: S-9, Method: STANDARD PLATE) was “inactive; negative”, the mutagenic call (Strain/Indicator: TA98NR, Metabolic Activation: NONE, Method: STANDARD PLATE) was “active; positive” and the mutagenic call (Strain/Indicator: TA98NR, Metabolic Activation: S-9, Method: STANDARD PLATE) was “active; positive”. The mutagenic call [3] was “inactive; negative”, the mutagenic call (Strain/Indicator: TA100, Metabolic Activation: S-9, Method: STANDARD PLATE) was “inactive; negative” and the mutagenic call (Strain/Indicator: TA102, Metabolic Activation: NONE, Method: STANDARD PLATE) was “inactive; negative”. The mutagenic call (Strain/Indicator: TA102, Metabolic Activation: S-9, Method: STANDARD PLATE) was “inactive; negative”, the mutagenic call [5] was “active; positive” and the mutagenic call (Strain/Indicator: TA1535, Metabolic Activation: S-9, Method: STANDARD PLATE) was “active; positive”. For the same compound, the mutagenic call (Strain/Indicator: YG7104, Metabolic Activation: NONE, Method: STANDARD PLATE) was “active; positive”, the mutagenic call (Strain/Indicator: YG7104, Metabolic Activation: S-9, Method: STANDARD PLATE) was “active; positive” and the mutagenic call (Strain/Indicator: YG7108, Metabolic Activation: NONE, Method: STANDARD PLATE) was “inactive; negative”. The mutagenic call (Strain/Indicator: YG7108, Metabolic Activation: S-9, Method: STANDARD PLATE) was “active; positive”.
In the case of `c1ccc2cc3c(ccc4ccncc43)cc2c1`, the mutagenic call [1] is reported as “inactive; negative”, the mutagenic call [2] is reported as “active; positive” and the mutagenic call [4] is reported as “active; positive”.
With `CS(C)(=O)=O` the mutagenic call (Strain/Indicator: TA98, Metabolic Activation: NONE, Method: PREINCUBATION) was “inactive; negative”, the mutagenic call (Strain/Indicator: TA98, Metabolic Activation: RAT, LIVER, S-9, AROCLOR 1254, Method: PREINCUBATION) was “inactive; negative” and the mutagenic call [11] was “inactive; negative”. For the same compound, the mutagenic call (Strain/Indicator: TA100, Metabolic Activation: RAT, LIVER, S-9, AROCLOR 1254, Method: PREINCUBATION) was “inactive; negative”, the mutagenic call [9] was “inactive; negative” and the mutagenic call [10] was “inactive; negative”.
For `O=[N+]([O-])c1ccccc1CCl`, the mutagenic call (Strain/Indicator: TA98, Metabolic Activation: HAMSTER, LIVER, S-9, AROCLOR 1254 (10%), Method: PREINCUBATION) was “inactive; negative”, the mutagenic call (Strain/Indicator: TA98, Metabolic Activation: RAT, LIVER, S-9, AROCLOR 1254 (10%), Method: PREINCUBATION) was “inactive; negative” and the mutagenic call (Strain/Indicator: TA98, Metabolic Activation: RAT, LIVER, S-9, KANECHLOR 500, Method: PREINCUBATION) was “active; positive”. The mutagenic call (Strain/Indicator: TA100, Metabolic Activation: HAMSTER, LIVER, S-9, AROCLOR 1254 (10%), Method: PREINCUBATION) was “active; positive”, the mutagenic call [11] was “active; positive” and the mutagenic call (Strain/Indicator: TA100, Metabolic Activation: RAT, LIVER, S-9, AROCLOR 1254 (10%), Method: PREINCUBATION) was “active; positive”. For the same compound, the mutagenic call (Strain/Indicator: TA100, Metabolic Activation: RAT, LIVER, S-9, KANECHLOR 500, Method: PREINCUBATION) was “active; positive”, the mutagenic call (Strain/Indicator: TA1535, Metabolic Activation: HAMSTER, LIVER, S-9, AROCLOR 1254 (10%), Method: PREINCUBATION) was “active; positive” and the mutagenic call (Strain/Indicator: TA1535, Metabolic Activation: NONE, Method: PREINCUBATION) was “inactive; negative”. The mutagenic call (Strain/Indicator: TA1535, Metabolic Activation: RAT, LIVER, S-9, AROCLOR 1254 (10%), Method: PREINCUBATION) was “active; positive”, the mutagenic call (Strain/Indicator: TA1537, Metabolic Activation: HAMSTER, LIVER, S-9, AROCLOR 1254 (10%), Method: PREINCUBATION) was “inactive; negative” and the mutagenic call (Strain/Indicator: TA1537, Metabolic Activation: NONE, Method: PREINCUBATION) was “inactive; negative”. The mutagenic call (Strain/Indicator: TA1537, Metabolic Activation: RAT, LIVER, S-9, AROCLOR 1254 (10%), Method: PREINCUBATION) was “inactive; negative” and the mutagenic call (Strain/Indicator: TA1538, Metabolic Activation: NONE, Method: PREINCUBATION) was “inactive; negative”.
In the case of `CC(C)C[C@@H]1NC(=O)CNC1=O`, the mutagenic call [1] is reported as “inactive; negative”, the mutagenic call [2] is reported as “inactive; negative” and the mutagenic call [3] is reported as “inactive; negative”. For the same compound, the mutagenic call [4] was “inactive; negative”, the mutagenic call [5] was “inactive; negative” and the mutagenic call [6] was “inactive; negative”. The mutagenic call [7] was “inactive; negative” and the mutagenic call [8] was “inactive; negative”.
